Test results taken from patent publication US6011135A, “Triazine thiol derivative having a perfluoro group, method for producing same and use of same” (Iwate University, priority 1997, dated 2000).

Assays:
Format in all cases: physicochemical
[1] = Dissociation constants (pKa1, pKa2), yardstick for reactivity; conditions: dissociation constant
Excerpt: (§1) In Table 5 below, there is shown the effectiveness of 6-perfluoro alkylamino-1,3,5-triazine-2,4-dithiol of examples of the present invention by comparing the dissociation constants, oxidation potential and critical micelle concentration with those of the comparative example.
(§2) With respect to the dissociation constants (pKa1, pKa2), which may function as a yardstick for reactivity, all the examples of the present invention have lower dissociation constants than the comparative example. Accordingly, it is understood that the triazine thiol derivative having a perfluoro group of the present invention has an excellent reactivity. With regard to the oxidation potential which functions as a yardstick for easiness of tribological polymerization and electrolytic polymerization, each example has a lower oxidation potential than the comparative example. This means that an oxidative polymerization of the triazine thiol derivative having a perfluoro group according to the present invention is easier than that of the comparative example. Further, the critical micelle concentration of every example is lower than that of the comparative example. This means that micelle formation is easier in the examples and thus, the triazine thiol derivative having a perfluoro group according to the present invention has an excellent surface activity.

[2] = Oxidation potential, yardstick for easiness of tribological and electrolytic polymerization
Excerpt: as §1, §2

[3] = Critical micelle concentration (surface activity)
Excerpt: as §1, §2

[4] = Solubility of 6-perfluoro alkylamino-1,3,5-triazine-2,4-dithiol to various solvents; parameters: key to Solubility, Toluene: X: did not solved; Δ: slightly solved (1 wt % or less); .largecircle.: sufficiently solved (1-10 wt %); .circleincircle.: excellently solved (10 wt % or more)

SMILES	pKa1 [1]	pKa2 [1]	Oxidation potential [2] [V vs. Ag^+ /Ag]	Critical micelle concentration [3] [mol/L]	Solubility, MEK [4]	Solubility, Acetic ether [4]	Solubility, Ethanol [4]	Solubility, Toluene [4]	Solubility, Water [4]
FC(F)(F)C(F)(F)C(F)(F)C(F)(F)C(F)(F)C(F)(F)C(F)(F)c1ccc(Nc2nc(S)nc(S)n2)cc1 [Comparative example, reference compound]	8.3	10.7	0.90	0.022	Δ (slightly solved (1 wt % or less))	Δ (slightly solved (1 wt % or less))	Δ (slightly solved (1 wt % or less))	X	Δ (slightly solved (1 wt % or less))
FC(F)(F)C(F)(F)C(F)(F)C(F)(F)C(F)(F)C(F)(F)C(F)(F)CNc1nc(S)nc(S)n1 [Example 11]	8.1	10.3	0.62	0.0021	.largecircle. (sufficiently solved (1-10 wt %))	Δ (slightly solved (1 wt % or less))	.largecircle. (sufficiently solved (1-10 wt %))	Δ (slightly solved (1 wt % or less))	.largecircle. (sufficiently solved (1-10 wt %))
CCCCN(CC(F)(F)C(F)(F)C(F)(F)C(F)(F)C(F)(F)C(F)(F)C(F)(F)F)c1nc(S)nc(S)n1 [Example 12]	7.4	10.4	0.46	2.1e-05	.circleincircle. (excellently solved (10 wt % or more))	.largecircle. (sufficiently solved (1-10 wt %))	.largecircle. (sufficiently solved (1-10 wt %))	.largecircle. (sufficiently solved (1-10 wt %))	.largecircle. (sufficiently solved (1-10 wt %))
FC(F)(F)C(F)(F)C(F)(F)C(F)(F)C(F)(F)C(F)(F)C(F)(F)CN(c1nc(S)nc(S)n1)C1CCCCC1 [Example 13]	6.2	10.6	0.78	5.6e-05	.circleincircle. (excellently solved (10 wt % or more))	.largecircle. (sufficiently solved (1-10 wt %))	.largecircle. (sufficiently solved (1-10 wt %))	.largecircle. (sufficiently solved (1-10 wt %))	.largecircle. (sufficiently solved (1-10 wt %))
CCCCN(CC(F)(F)C(F)(F)C(F)(F)C(F)(F)C(F)(F)C(F)(F)C(F)(F)C(F)(F)C(F)(F)C(F)(F)F)c1nc(S)nc(S)n1 [Example 14]	7.5	9.8	0.56	1.1e-05	.circleincircle. (excellently solved (10 wt % or more))	.largecircle. (sufficiently solved (1-10 wt %))	.largecircle. (sufficiently solved (1-10 wt %))	.largecircle. (sufficiently solved (1-10 wt %))	.largecircle. (sufficiently solved (1-10 wt %))
